Experimental data taken from patent publication US20050239784A1 (priority 2002, published 2005).
In brackets after ≈: the same amount, converted by molar mass. Like-named read-outs stand apart in the source and are kept apart here.

Assays:
CDK4 = CDK4 (Homo sapiens, UniProt P11802); test: biochemical
AKT3 [1] = target: T1, AKT3 (Homo sapiens, UniProt Q9Y243); test: biochemical
Target sequence in this assay (Q9Y243 whole entry, species assumed): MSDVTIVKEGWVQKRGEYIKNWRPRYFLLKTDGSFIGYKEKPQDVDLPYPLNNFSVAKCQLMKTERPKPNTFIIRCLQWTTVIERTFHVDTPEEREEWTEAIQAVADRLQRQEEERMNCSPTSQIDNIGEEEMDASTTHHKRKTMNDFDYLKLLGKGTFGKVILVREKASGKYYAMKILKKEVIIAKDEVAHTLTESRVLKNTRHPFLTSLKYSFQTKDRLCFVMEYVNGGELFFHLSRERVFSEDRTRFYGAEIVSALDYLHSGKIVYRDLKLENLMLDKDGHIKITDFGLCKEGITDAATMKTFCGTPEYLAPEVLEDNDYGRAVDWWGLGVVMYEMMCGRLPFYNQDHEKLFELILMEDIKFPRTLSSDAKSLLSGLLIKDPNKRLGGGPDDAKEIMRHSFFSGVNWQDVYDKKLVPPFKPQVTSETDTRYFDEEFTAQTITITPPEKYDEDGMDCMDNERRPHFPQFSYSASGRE

A2780 cells = test: Cytotox survival of A2780 cells after 3 days; type: cell-based; details: for IC50: Homo sapiens, A2780, 72 h
Procedure: In an alternative assay, the growth inhibitory effect of the compounds was tested on the ovarian carcinoma cell line A2780 using art known cytotoxicity assays such as LIVE/DEAD (Molecular Probes) MTT.

physchem = details: pH 7.4, aqueous buffer, kinetic from dmso stock
AKT3 [2] = target: T1, AKT3; test: cell-based
Target sequence in this assay (Q9Y243 whole entry): as the sequence (Q9Y243 whole entry, species assumed) above

CDC25B = target: T2, CDC25B (Homo sapiens, UniProt P30305); test: biochemical
T2 sequence (P30305 1-580): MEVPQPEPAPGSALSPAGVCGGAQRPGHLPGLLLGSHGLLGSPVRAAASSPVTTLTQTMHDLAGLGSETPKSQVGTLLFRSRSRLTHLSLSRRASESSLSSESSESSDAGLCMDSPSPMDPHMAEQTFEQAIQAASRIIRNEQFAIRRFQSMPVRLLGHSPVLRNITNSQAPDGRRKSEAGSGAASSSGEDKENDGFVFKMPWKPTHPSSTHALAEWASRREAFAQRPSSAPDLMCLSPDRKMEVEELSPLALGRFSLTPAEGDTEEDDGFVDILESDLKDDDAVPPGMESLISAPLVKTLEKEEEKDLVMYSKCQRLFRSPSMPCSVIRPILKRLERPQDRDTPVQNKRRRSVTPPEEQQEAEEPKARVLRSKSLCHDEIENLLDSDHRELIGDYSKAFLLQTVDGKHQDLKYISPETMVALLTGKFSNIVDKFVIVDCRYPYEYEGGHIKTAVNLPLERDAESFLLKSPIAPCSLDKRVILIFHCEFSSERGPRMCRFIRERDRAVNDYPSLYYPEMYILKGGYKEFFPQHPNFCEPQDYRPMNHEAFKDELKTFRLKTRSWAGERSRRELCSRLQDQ

[3] = CDK4 SPA (Ex. C.1): pIC50 values
[4] = AKT3 pep. (Ex. C.3): pIC50 values
[5] = A2780 cells, 3 days, read-out: Cytotox survival of A2780 cells after 3 days - pIC50 values (converted)
[6] = read-out: CDK4 SPA (Ex. C.1): pIC50 values (converted)
[7] = read-out: AKT3 pep. (Ex. C.3): pIC50 values (converted)
[8] = read-out: AKT cel (Ex. C.6): pIC50 values (converted)
[9] = read-out: CDC25B WT (Ex. C.5): pIC50 values (converted)
[10] = read-out: Cytotox survival of A2780 cells after 3 days - pIC50 values, A2780 cells, 3 days (converted)
[11] = AKT cel (Ex. C.6): pIC50 values, MDA-MB 231 cells, phosphorylated MAPK read-out
[12] = CDC25B WT (Ex. C.5): pIC50 values

CDK4, sequence (P11802 whole entry, species assumed): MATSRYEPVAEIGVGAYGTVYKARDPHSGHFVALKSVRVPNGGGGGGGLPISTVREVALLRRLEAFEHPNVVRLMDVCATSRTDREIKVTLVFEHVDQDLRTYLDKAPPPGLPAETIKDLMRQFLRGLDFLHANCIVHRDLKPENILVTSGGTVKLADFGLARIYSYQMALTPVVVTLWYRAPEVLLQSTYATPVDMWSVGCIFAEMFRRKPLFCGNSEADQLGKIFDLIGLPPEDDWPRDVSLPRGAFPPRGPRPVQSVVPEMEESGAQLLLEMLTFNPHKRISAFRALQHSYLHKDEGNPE
CDK4, sequence (P24385 whole entry partner, species assumed): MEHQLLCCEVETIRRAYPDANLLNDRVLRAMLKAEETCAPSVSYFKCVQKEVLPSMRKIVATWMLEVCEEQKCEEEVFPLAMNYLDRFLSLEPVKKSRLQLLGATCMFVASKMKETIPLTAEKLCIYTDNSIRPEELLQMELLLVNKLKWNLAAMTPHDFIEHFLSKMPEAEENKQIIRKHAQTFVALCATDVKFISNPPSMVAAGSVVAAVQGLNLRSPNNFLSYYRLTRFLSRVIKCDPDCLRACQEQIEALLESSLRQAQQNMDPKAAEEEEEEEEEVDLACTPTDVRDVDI

CC(C)n1nc(-c2ccc(OCCN3CCOCC3)c(Cl)c2)nc2c(=O)n(C)c(=O)nc1-2 [Compound 74]
IC50 (CDK4; [3]): 161 nM | IC50 (AKT3 [1]; [4]): 111 nM | IC50 (A2780 cells; [5]): 190 nM | solubility (physchem): 160 to 1800 µM (≈ 73.7 to 830 µg/mL)

COc1cc(-c2nc3c(=O)n(C)c(=O)nc-3n(C(C)C)n2)cc(OC)c1OCCN1CCCCC1 [Compound 77]
IC50 (CDK4; [6]): 293 nM | IC50 (AKT3 [1]; [7]): 240 nM | IC50 (AKT3 [2]; [8]): > 1000 nM | Cytotox survival of A2780 cells after 3 days - pIC50 values (A2780 cells; A2780 cells, 3 days): 6.785 | IC50 (CDC25B; [9]): 43.3 nM

COc1cc(-c2nc3c(=O)n(C)c(=O)nc-3n(C(C)C)n2)ccc1OCCN1CCCCC1 [Compound 78]
IC50 (CDK4; [6]): 513 nM | IC50 (AKT3 [1]; [7]): 262 nM | IC50 (AKT3 [2]; [8]): 301 nM | IC50 (A2780 cells; [10]): 269 nM | IC50 (CDC25B; [9]): 44 nM | solubility (physchem): > 1800 µM

CC(C)n1nc(-c2ccc(OCCN3CCN(S(=O)(=O)N(C)C)CC3)cc2)nc2c(=O)n(C)c(=O)nc1-2 [Compound 79]
IC50 (CDK4; [6]): 404 nM | IC50 (AKT3 [1]; [7]): 282 nM | IC50 (AKT3 [2]; [8]): ≥ 3000 nM | IC50 (A2780 cells; [10]): 513 nM | IC50 (CDC25B; [9]): 26.2 nM | solubility (physchem): 160 to 1800 µM (≈ 85.2 to 959 µg/mL)

CC(C)n1nc(-c2ccc(OCCN3CCN(C(=O)OC(C)(C)C)CC3)cc2)nc2c(=O)n(C)c(=O)nc1-2 [Compound 80]
IC50 (CDK4; [6]): 372 nM | IC50 (AKT3 [1]; [7]): 395 nM | IC50 (AKT3 [2]; [8]): > 300 nM | IC50 (A2780 cells; [10]): 390 nM | IC50 (CDC25B; [9]): 32.4 nM | solubility (physchem): 160 to 1800 µM (≈ 84.1 to 946 µg/mL)

CC(C)n1nc(-c2ccc(OCCCN3CCCCC3)cc2)nc2c(=O)n(C)c(=O)nc1-2 [Compound 81]
IC50 (CDK4; [6]): 194 nM | IC50 (AKT3 [1]; [7]): 252 nM | IC50 (AKT3 [2]; [8]): > 1000 nM | IC50 (A2780 cells; [10]): 132 nM | IC50 (CDC25B; [9]): 38.9 nM | solubility (physchem): > 1800 µM

CC(C)n1nc(-c2ccc(OCCN3CCNCC3)cc2)nc2c(=O)n(C)c(=O)nc1-2 [Compound 82]
IC50 (CDK4; [6]): 300 nM | IC50 (AKT3 [1]; [7]): 339 nM | IC50 (AKT3 [2]; [8]): 216 nM | IC50 (A2780 cells; [10]): 375 nM | IC50 (CDC25B; [9]): 50.2 nM | solubility (physchem): > 1800 µM

CC(C)n1nc(-c2ccc(OCCCN3CCOCC3)cc2)nc2c(=O)n(C)c(=O)nc1-2 [Compound 84]
IC50 (CDK4; [3]): 586 nM | IC50 (AKT3 [1]; [4]): 280 nM | IC50 (AKT3 [2]; [11]): > 1000 nM | IC50 (A2780 cells; [5]): 216 nM | IC50 (CDC25B; [12]): 38.3 nM | solubility (physchem): > 1800 µM

COc1cc(-c2nc3c(=O)n(C)c(=O)nc-3n(C(C)C)n2)cc(OC)c1OCCN1CCN(C)CC1 [Compound 85]
IC50 (CDK4; [6]): 322 nM | IC50 (AKT3 [1]; [7]): 345 nM | IC50 (AKT3 [2]; [8]): > 1000 nM | IC50 (A2780 cells; [10]): 228 nM | IC50 (CDC25B; [9]): 48.4 nM | solubility (physchem): > 1800 µM

COc1cc(-c2nc3c(=O)n(C)c(=O)nc-3n(C(C)C)n2)cc(OC)c1OS(=O)(=O)N(C)C [Compound 86]
IC50 (CDK4; [6]): 272 nM | IC50 (AKT3 [1]; [7]): 273 nM | IC50 (AKT3 [2]; [8]): > 1000 nM | IC50 (A2780 cells; [10]): 264 nM | IC50 (CDC25B; [9]): 38.6 nM | solubility (physchem): 160 to 1800 µM (≈ 76.9 to 865 µg/mL)

CC(C)n1nc(-c2ccc(OS(=O)(=O)N(C)C)cc2)nc2c(=O)n(C)c(=O)nc1-2 [Compound 87]
IC50 (CDK4; [3]): 274 nM | IC50 (AKT3 [1]; [4]): 410 nM | IC50 (AKT3 [2]; [11]): > 1000 nM | IC50 (A2780 cells; [10]): 198 nM | IC50 (CDC25B; [12]): 48.3 nM | solubility (physchem): 160 to 1800 µM (≈ 67.3 to 757 µg/mL)

CC(C)n1nc(-c2ccc(OCCN3CCCCC3)c(Cl)c2)nc2c(=O)n(C)c(=O)nc1-2 [Compound 88]
IC50 (CDK4; [6]): 267 nM | IC50 (AKT3 [1]; [7]): 239 nM | IC50 (AKT3 [2]; [8]): > 1000 nM | IC50 (A2780 cells; [10]): 168 nM | IC50 (CDC25B; [9]): 25.8 nM | solubility (physchem): 160 to 1800 µM (≈ 73.4 to 826 µg/mL)

COc1cc(-c2nc3c(=O)n(C)c(=O)nc-3n(C(C)C)n2)cc(OC)c1OCCN1CCN(C(=O)OC(C)(C)C)CC1 [Compound 89]
IC50 (CDK4; [6]): 506 nM | IC50 (AKT3 [1]; [7]): 352 nM | IC50 (AKT3 [2]; [8]): > 1000 nM | IC50 (A2780 cells; [10]): 527 nM | IC50 (CDC25B; [9]): 35.5 nM | solubility (physchem): > 1800 µM

CC(C)n1nc(-c2ccc(OCCCN3CCCCC3)cc2)nc2c(=O)n(C)c(=O)nc1-2 [Compound 90]
IC50 (AKT3 [1]; [7]): 181 nM | Cytotox survival of A2780 cells after 3 days - pIC50 values (A2780 cells; A2780 cells, 3 days): 6.842 | IC50 (CDC25B; [9]): 27.9 nM
